In ChEMBL document CHEMBL3526097, “Preclinical disposition of GDC-0973 and prospective and retrospective analysis of human dose and efficacy predictions” (Drug Metab Dispos, 2012):

Key:
[1] = Percentage unbound in cynomolgus monkey plasma at 5 uM after 5 hrs by equilibrium dialysis; type: ADME, cell-free, Macaca fascicularis
Large intestine = experiment: Drug uptake in Long-Evans rat large intestine at 30 mg/kg, po after 2 hrs by autoradiography; type: ADME, organism-based; parameters: dose 30 mg/kg, route oral; conditions: in vivo
[2] = Percentage unbound in human plasma at 10 uM after 5 hrs by equilibrium dialysis; type: ADME, cell-free
[3] = Drug uptake in Long-Evans rat lacrimal gland at 30 mg/kg, po after 2 hrs by autoradiography; type: ADME, organism-based, Lachrymal gland; parameters: dose 30 mg/kg, route oral; conditions: in vivo
Cerebrum = experiment: Drug uptake in Long-Evans rat cerebrum at 30 mg/kg, po after 4 hrs by autoradiography; type: ADME, organism-based; parameters: dose 30 mg/kg, route oral; conditions: in vivo
[4] = Percentage unbound in mouse plasma at 10 uM after 5 hrs by equilibrium dialysis; type: ADME, cell-free
[5] = Ratio of drug level in blood to plasma in Sprague-Dawley rat at 5 uM after 30 mins; type: ADME
[6] = Drug excretion in bile duct-cannulated Sprague-Dawley rat bile at 30 mg/kg, po after 48 hrs by liquid scintillation counting; type: ADME, organism-based; parameters: dose 30 mg/kg, route oral; conditions: in vivo
[7] = Drug excretion in bile duct-cannulated Beagle dog bile at 30 mg/kg, po after 168 hrs by liquid scintillation counting; type: ADME, organism-based, Canis lupus familiaris; parameters: dose 30 mg/kg, route oral; conditions: in vivo
[8] = Percentage unbound in cynomolgus monkey plasma at 10 uM after 5 hrs by equilibrium dialysis; type: ADME, cell-free, Macaca fascicularis
[9] = Percentage unbound in rat plasma at 10 uM after 5 hrs by equilibrium dialysis; type: ADME, cell-free
Intestine = experiment: Drug uptake in Long-Evans rat intestine at 30 mg/kg, po after 72 hrs by autoradiography; type: ADME, organism-based; parameters: dose 30 mg/kg, route oral; conditions: in vivo
[10] = Drug excretion in bile duct-intact Sprague-Dawley rat feces at 30 mg/kg, po after 48 hrs by liquid scintillation counting; type: ADME, organism-based; parameters: dose 30 mg/kg, route oral; conditions: in vivo
[11] = Drug excretion in bile duct-intact Sprague-Dawley rat urine at 30 mg/kg, po after 48 hrs by liquid scintillation counting; type: ADME, organism-based; parameters: dose 30 mg/kg, route oral; conditions: in vivo
[12] = Drug excretion in bile duct-intact Beagle dog urine at 30 mg/kg, po after 72 hrs by liquid scintillation counting; type: ADME, organism-based, Canis lupus familiaris; parameters: dose 30 mg/kg, route oral; conditions: in vivo
[13] = Ratio of drug level in blood to plasma in cynomolgus monkey at 10 uM after 30 mins; type: ADME, Macaca fascicularis
[14] = Ratio of drug level in blood to plasma in human at 5 uM after 30 mins; type: ADME
[15] = Ratio of drug level in blood to plasma in Sprague-Dawley rat at 1 uM after 30 mins; type: ADME
Kidney = experiment: Drug uptake in Long-Evans rat kidney at 30 mg/kg, po after 72 hrs by autoradiography; type: ADME, organism-based; parameters: dose 30 mg/kg, route oral; conditions: in vivo
[16] = Percentage unbound in dog plasma at 5 uM after 5 hrs by equilibrium dialysis; type: ADME, cell-free, Canis lupus familiaris
[17] = Ratio of drug level in blood to plasma in human at 10 uM after 30 mins; type: ADME
[18] = Drug excretion in bile duct-intact Beagle dog feces at 30 mg/kg, po after 72 hrs by liquid scintillation counting; type: ADME, organism-based, Canis lupus familiaris; parameters: dose 30 mg/kg, route oral; conditions: in vivo
[19] = Percentage unbound in cynomolgus monkey plasma at 1 uM after 5 hrs by equilibrium dialysis; type: ADME, cell-free, Macaca fascicularis
Albumin [20] = target: T1, Albumin (Homo sapiens, UniProt P02768); experiment: Percentage unbound in human serum albumin at 5 uM after 5 hrs by equilibrium dialysis; type: ADME
T1 sequence (P02768 whole entry): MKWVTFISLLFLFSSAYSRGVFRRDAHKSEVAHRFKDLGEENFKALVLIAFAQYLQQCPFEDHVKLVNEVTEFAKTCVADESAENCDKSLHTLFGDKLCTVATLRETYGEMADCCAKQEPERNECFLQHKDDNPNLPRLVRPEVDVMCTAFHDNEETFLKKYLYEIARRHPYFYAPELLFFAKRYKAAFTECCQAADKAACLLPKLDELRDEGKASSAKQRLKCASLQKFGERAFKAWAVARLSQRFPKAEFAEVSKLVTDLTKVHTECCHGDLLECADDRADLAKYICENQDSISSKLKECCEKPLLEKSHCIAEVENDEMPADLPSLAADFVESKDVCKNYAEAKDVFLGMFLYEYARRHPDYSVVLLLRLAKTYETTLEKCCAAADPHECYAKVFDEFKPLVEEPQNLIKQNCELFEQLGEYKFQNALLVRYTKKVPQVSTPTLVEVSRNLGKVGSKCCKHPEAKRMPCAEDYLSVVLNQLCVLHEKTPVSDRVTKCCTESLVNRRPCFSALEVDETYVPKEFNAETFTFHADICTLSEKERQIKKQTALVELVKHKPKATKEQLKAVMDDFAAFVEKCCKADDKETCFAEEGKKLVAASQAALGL

[21] = Percentage unbound in human plasma at 1 uM after 5 hrs by equilibrium dialysis; type: ADME, cell-free
[22] = Ratio of drug level in blood to plasma in human at 1 uM after 30 mins; type: ADME
[23] = Drug uptake in Long-Evans rat melanin containing tissue at 30 mg/kg, po after 72 hrs by autoradiography; type: ADME, organism-based; parameters: dose 30 mg/kg, route oral; conditions: in vivo
Lung = experiment: Drug uptake in Long-Evans rat lung at 30 mg/kg, po after 2 hrs by autoradiography; type: ADME, organism-based; parameters: dose 30 mg/kg, route oral; conditions: in vivo
[24] = Ratio of drug level in blood to plasma in CD1 mouse at 5 uM after 30 mins; type: ADME
Adrenal gland = experiment: Drug uptake in Long-Evans rat adrenal gland at 30 mg/kg, po after 2 hrs by autoradiography; type: ADME, organism-based; parameters: dose 30 mg/kg, route oral; conditions: in vivo
Albumin [25] = target: T1, Albumin; experiment: Percentage unbound in human serum albumin at 10 uM after 5 hrs by equilibrium dialysis; type: ADME
[26] = Ratio of drug level in blood to plasma in Sprague-Dawley rat at 10 uM after 30 mins; type: ADME
[27] = Percentage unbound in dog plasma at 1 uM after 5 hrs by equilibrium dialysis; type: ADME, cell-free, Canis lupus familiaris
[28] = Ratio of drug level in blood to plasma in CD1 mouse at 1 uM after 30 mins; type: ADME
[29] = Percentage unbound in human alpha-1-acid glycoprotein at 1 uM after 5 hrs by equilibrium dialysis; type: ADME
[30] = Ratio of drug level in blood to plasma in beagle dog at 1 uM after 30 mins; type: ADME, Canis lupus familiaris
[31] = Ratio of drug level in blood to plasma in CD1 mouse at 10 uM after 30 mins; type: ADME
Albumin [32] = target: T1, Albumin; experiment: Percentage unbound in human serum albumin at 1 uM after 5 hrs by equilibrium dialysis; type: ADME
[33] = Ratio of drug level in blood to plasma in beagle dog at 10 uM after 30 mins; type: ADME, Canis lupus familiaris
[34] = Percentage unbound in mouse plasma at 5 uM after 5 hrs by equilibrium dialysis; type: ADME, cell-free
[35] = Percentage unbound in human alpha-1-acid glycoprotein at 10 uM after 5 hrs by equilibrium dialysis; type: ADME
[36] = Percentage unbound in mouse plasma at 1 uM after 5 hrs by equilibrium dialysis; type: ADME, cell-free
[37] = Percentage unbound in rat plasma at 1 uM after 5 hrs by equilibrium dialysis; type: ADME, cell-free
[38] = Percentage unbound in dog plasma at 10 uM after 5 hrs by equilibrium dialysis; type: ADME, cell-free, Canis lupus familiaris
[39] = Percentage unbound in human alpha-1-acid glycoprotein at 5 uM after 5 hrs by equilibrium dialysis; type: ADME
[40] = Ratio of drug level in blood to plasma in cynomolgus monkey at 1 uM after 30 mins; type: ADME, Macaca fascicularis
[41] = Ratio of drug level in blood to plasma in beagle dog at 5 uM after 30 mins; type: ADME, Canis lupus familiaris
[42] = Percentage unbound in rat plasma at 5 uM after 5 hrs by equilibrium dialysis; type: ADME, cell-free
[43] = Percentage unbound in human plasma at 5 uM after 5 hrs by equilibrium dialysis; type: ADME, cell-free
[44] = Ratio of drug level in blood to plasma in cynomolgus monkey at 5 uM after 30 mins; type: ADME, Macaca fascicularis
Liver [45] = experiment: Drug uptake in Long-Evans rat liver at 30 mg/kg, po after 72 hrs by autoradiography; type: ADME, organism-based; parameters: dose 30 mg/kg, route oral; conditions: in vivo
Liver [46] = experiment: Drug uptake in Long-Evans rat liver at 30 mg/kg, po after 2 hrs by autoradiography; type: ADME, organism-based; parameters: dose 30 mg/kg, route oral; conditions: in vivo

In the case of `O=C(c1ccc(F)c(F)c1N[14c]1[14cH][14cH][14c](I)[14cH][14c]1F)N1CC(O)([C@@H]2CCCCN2)C1`, the fraction unbound at 5 h, 5 µM [1] is reported as 0.044, the Drug uptake (Large intestine) is reported as “Active” and the fraction unbound at 5 h, 10 µM [2] is reported as 0.058. The Drug uptake [3] was “Active”, the Drug uptake (Cerebrum) was “Active” and the fraction unbound at 5 h, 10 µM [4] was 0.033. The blood plasma ratio at 0.5 h, 5 µM [5] was 1.37, the Drug excretion [6] was 74% and the Drug excretion [7] was 65%. The fraction unbound at 5 h, 10 µM [8] was 0.048, the fraction unbound at 5 h, 10 µM [9] was 0.037 and the Drug uptake (Intestine) was “Active”. It also gave a Drug excretion [10] of 85%, a Drug excretion [11] of 2.2% and a Drug excretion [12] of 6.3%. For the same molecule, the blood plasma ratio at 0.5 h, 10 µM [13] was 1.82, the blood plasma ratio at 0.5 h, 5 µM [14] was 0.945 and the blood plasma ratio at 0.5 h, 1 µM [15] was 1.36. For the same molecule, the Drug uptake (Kidney) was “Active”, the fraction unbound at 5 h, 5 µM [16] was 0.012 and the blood plasma ratio at 0.5 h, 10 µM [17] was 1.05. It also gave a Drug excretion [18] of 80%, a fraction unbound at 5 h, 1 µM [19] of 0.045 and a fraction unbound at 5 h, 5 µM (Albumin [20]) of 0.408. For the same molecule, the fraction unbound at 5 h, 1 µM [21] was 0.052, the blood plasma ratio at 0.5 h, 1 µM [22] was 0.933 and the Drug uptake [23] was “Active”. The Drug uptake (Lung) was “Active”, the blood plasma ratio at 0.5 h, 5 µM [24] was 1.19 and the Drug uptake (Adrenal gland) was “Active”. For the same molecule, the fraction unbound at 5 h, 10 µM (Albumin [25]) was 0.408, the blood plasma ratio at 0.5 h, 10 µM [26] was 1.51 and the fraction unbound at 5 h, 1 µM [27] was 0.007. For the same molecule, the blood plasma ratio at 0.5 h, 1 µM [28] was 1.16, the fraction unbound at 5 h, 1 µM [29] was 0.044 and the blood plasma ratio at 0.5 h, 1 µM [30] was 0.632. For the same molecule, the blood plasma ratio at 0.5 h, 10 µM [31] was 1.27, the fraction unbound at 5 h, 1 µM (Albumin [32]) was 0.469 and the blood plasma ratio at 0.5 h, 10 µM [33] was 0.936. It also gave a fraction unbound at 5 h, 5 µM [34] of 0.034, a fraction unbound at 5 h, 10 µM [35] of 0.053 and a fraction unbound at 5 h, 1 µM [36] of 0.041. It also gave a fraction unbound at 5 h, 1 µM [37] of 0.028, a fraction unbound at 5 h, 10 µM [38] of 0.014 and a fraction unbound at 5 h, 5 µM [39] of 0.042. For the same molecule, the blood plasma ratio at 0.5 h, 1 µM [40] was 1.57, the blood plasma ratio at 0.5 h, 5 µM [41] was 0.752 and the fraction unbound at 5 h, 5 µM [42] was 0.035. For the same molecule, the fraction unbound at 5 h, 5 µM [43] was 0.065, the blood plasma ratio at 0.5 h, 5 µM [44] was 1.64 and the Drug uptake (Liver [45]) was “Active”. The Drug uptake (Liver [46]) was “Active”.
